“Also recorded” adds a separate entry of the source.
Experiments:
[1] = biological target: T1, purified recombinant OC2 HOX domain (Homo sapiens, UniProt O95948); assay: Surface plasmon resonance (SPR) binding of compound to immobilized OC2-HOX domain
T1 construct: made in house
T1 sequence (O95948 426-485 limits assumed): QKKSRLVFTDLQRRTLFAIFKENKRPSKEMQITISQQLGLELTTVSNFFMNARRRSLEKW
Method: FIG. 13 depicts in accordance with various embodiments of the invention, Compound CSRM617 binds to ONECUT2 in a dose-dependent manner. To measure binding features of CSRM617, the OC2-HOX domain was recombinantly produced. Purified OC2-HOX binding domain was next immobilized on a HisCap sensor chip and CSRM617 was analyzed at serial doubling concentrations maximized at 100 μM.
FIG. 25A-FIG. 25C depict in accordance with various embodiments of the invention, FIG. 25A: (Left panel) representative sensorgram showing dose-dependent OC2-Compound CSRM617 interaction measured by surface plasmon resonance (SPR). Real-time binding was quantified by immobilizing biotinylated OC2 protein on the streptavidin biosensor with varying concentrations of Compound CSRM617 1.56-100 μm). (Right panel) OC2 binding to the experimentally determined OC2 binding site on the PEG10 promoter assayed by SPR. FIG. 25B: suppression of PEG10 protein expression in 22Rv1 tumors. FIG. 25C: suppression of PEG10 protein expression in 22Rv1 tumors.
(§1) To assess whether OC2 might be inhibited with a small molecule, we developed a structural model of OC2 binding to DNA using homology modeling, and conducted a virtual screen of a chemical library consisting of […] compounds. 15 compounds were selected for biological activity testing using in vitro assays. One compound, compound CSRM617, was deemed to be biologically active and was selected for further study. […] To evaluate the selectivity of Compound CSRM617 for genes regulated by OC2, we generated gene expression microarray data from 22Rv1 cells treated with Compound CSRM617 for 4, 6 and 16 h. […] As described above, we identified PEG10 as a gene directly regulated by OC2 binding to the PEG10 promoter. […] The OC2 HOX fragment bound with high affinity (Kd=1 nM) to a DNA probe corresponding to the experimentally determined OC2 binding motif in the PEG10 promoter (FIG. 25A, right panel).

22RV1 = assay: Cell-Titer GLO viability / proliferation in 22RV1; type: cell-based, human
Method: (§2) ACTB and GAPDH expression levels were used for normalization. […] Cells were seeded in 96-well plates at 500 cells per well in a total volume of 100 ul media containing 10% FBS. Serially diluted compound CSRM617 was added to the cells 24 h later. After 48 h incubation, cell viability was assessed by Cell-Titer GLO (Promega). The values were normalized and IC50 was calculated using GraphPad Prism software. […] RWPE-1 is a benign prostate cell line.

C4-2 = assay: Cell-Titer GLO viability / proliferation in C4-2; type: cell-based, human
Method: as §2

LNCaP = assay: Cell proliferation in vitro in LNCaP; type: cell-based, human
Method: as §2

[2] = tested on: human prostate cancer cell lines; assay: Growth, apoptosis and IC50 across prostate cell lines versus OC2 expression; type: cell-based; settings: PC cell lines that express medium to high levels of OC2
Method: as §2, §1

[3] = tested on: 22RV1 prostate cancer cells; assay: Apoptosis induction by cleaved Caspase-3 and PARP in 22RV1; type: cell-based, human
Description: GAPDH served as a loading control.

OC2 target genes = assay: Gene expression microarray and GSEA of OC2 target genes in 22Rv1; type: cell-based, human; settings: 10 μM, 4, 6 and 16 h
Method: FIG. 14A-FIG. 14E depict in accordance with various embodiments of the invention, Compound CSRM617 perturbs OC2-regulated genes and suppresses 22Rv1 tumor growth in mice. To evaluate the specificity of CSRM617 for genes regulated by OC2, we generated gene expression microarray data from 22Rv1 cells treated with the compound at a concentration of 10 μM for 4, 6 and 16 h.
as §1

PEG10 mRNA = PEG10 mRNA expression in 22Rv1 (microarray); type: cell-based, human; settings: 10 μM, 4, 6 and 16 h
Method: FIG. 16A-FIG. 16C depict in accordance with various embodiments of the invention, that OC2 activates PEG10, a driver of transdifferentiation from adenocarcinoma to neuroendocrine cancer. […] FIG. 16C: we have generated gene expression microarray data from 22Rv1 cells treated with the compound at a concentration of 10 μM for 4, 6 and 16 h. […] By inhibiting OC2 with compound CSRM617 the expression levels of the NE driver PEG10 are reduced.
as §1

22Rv1 xenografts = assay: Subcutaneous 22Rv1 xenograft growth in mice; type: in vivo; settings: established 22Rv1 xenografts; 50 mg/Kg/d; 50 mg/kg/day
[4] = Tolerability in treated mice (body weight, feeding, behavior); type: in vivo; settings: 50 mg/Kg/d
Method: (§3) To determine whether Compound CSRM617 is effective against CRPC metastases, 22Rv1 cells were injected intracardially in SCID mice, and the animals were subsequently treated with the above dose of the compound for several weeks. […] To test for evidence of bioactivity of Compound CSRM617 in situ, PEG10 protein levels were measured using IHC followed by digital imaging in adrenal gland tumors.

22Rv1 metastases = assay: 22Rv1 intracardiac injection metastasis model; type: in vivo, SCID mice; settings: 50 mg/kg daily; 4 w after intracardiac injection
Method: FIG. 15 depicts in accordance with various embodiments of the invention, Compound CSRM617 inhibits metastasis. 22Rv1-luciferase labeled cells were injected intracardially and mice were randomized (n=7 per group) to receive vehicle or 50 mg/kg^−1 CSRM617, daily. BLI images of mice bearing metastatic tumors 4 w after the injection (left) and graphical representation of normalized BLI signals (right). Mean±SD (n=7 per group) is shown; **P<0.01.
as §3

PEG10 protein = PEG10 protein by IHC and digital imaging in tumors of treated mice; type: in vivo; settings: adrenal gland tumors; IHC
Method: as §3

22Rv1 cells = assay: CellTiter-Glo cell viability of CSRM617 derivatives in 22Rv1; type: cell-based, human; settings: for potency (IC50) compared with compound CSRM617: 100 μM to 0.2 μM, 48 hours; for cell viability: 48 hours post treatment, CellTiter-Glo
Method: FIG. 17A: 22Rv1 cells were plated at a density of 1000 cells per well, in triplicate, in a 96 well plate. The next day cells were exposed to compound CSRM617, several derivatives or vehicle (1% DMSO) at a concentration of 25 μM. Viability was measured 48 hours post treatment using CellTiter-Glo Luminescent Cell Viability Assay (Promega). FIG. 17B: 22Rv1 cells were plated at a density of 1000 cells per well, in triplicate, in a 96 well plate. The next day, TO reading was collected and cells were exposed to compound CSRM617, the derivatives or vehicle (1% DMSO) at 2-fold concentration ranging from 100 μM to 0.2 μM. Viability was measured 48 hours post treatment using CellTiter-Glo Luminescent Cell Viability Assay (Promega).

[5] = Solubility relative to CSRM617; type: physicochemical

Row | direct binding to OC2 [1] | potency (IC50) compared with compound CSRM617 (22Rv1 cells) | solubility compared with compound CSRM617 [5] | Structure (SMILES) | cell viability (22Rv1 cells) | also measured
1 | binds directly to OC2 |  |  | N[C@@H](CO)C(=O)N/N=C/c1ccc(O)c(O)c1O [CSRM617] |  | Kd ([1]; SPR, serial doubling concentrations up to 100 μM): 7.43 µM; sensitivity (IC50) to compound (22RV1; 22RV1, 48 h incubation): highest sensitivity; cell proliferation in vitro (22RV1; 22Rv1): inhibited cell proliferation; cell proliferation in vitro (C4-2): inhibited cell proliferation; sensitivity (IC50) to compound (C4-2; 48 h incubation): highest sensitivity; cell proliferation in vitro (LNCaP): inhibited cell proliferation; apoptosis [2]: induced apoptosis; cell growth [2]: inhibited cell growth; apoptosis (cleaved Caspase-3 and PARP) [3]: induces apoptosis; perturbation of OC2 target genes (GSEA) (OC2 target genes): significant perturbation of OC2 target genes; PEG10 mRNA expression (PEG10 mRNA): downregulated in a time-dependent manner; subcutaneous tumor growth (22Rv1 xenografts): reduces tumor growth; also recorded: inhibited subcutaneous growth; body weight [4]: did not affect body weight; feeding patterns or behavior [4]: did not affect; onset and growth of diffuse metastases (BLI) (22Rv1 metastases): reduces significantly the onset and growth of diffuse metastases; also recorded: inhibited onset and growth of diffuse metastases; PEG10 protein levels in tumors (PEG10 protein): significantly down-regulated
2 | directly bind OC2 | comparable activity | improved solubility | N[C@@H](CO)C(=O)NNCc1ccc(O)c(O)c1O [Compound 122] | reduces cell viability | 
3 | directly bind OC2 | comparable activity | improved solubility | NC(=O)C1CCCCN1C(=O)NCCc1ccc(O)c(O)c1O (centres unmarked) [Compound 123] | reduces cell viability | 
4 | directly bind OC2 | comparable activity | improved solubility | O=C(CNC(=O)Cc1ccc(O)c(O)c1O)NO [Compound 843] | reduces cell viability | 
5 |  | comparable activity | improved solubility | CC(=O)NCCC(=O)NCCc1ccc(O)c(O)c1O [Compound 844] | reduces cell viability | 
6 |  | comparable activity | improved solubility | O=C1CCC(C(=O)NCCc2ccc(O)c(O)c2O)CN1 (centres unmarked) [Compound 848] | reduces cell viability | 

From patent US10927070B2, “Compositions and methods for treating cancer” (Cedars-Sinai Medical Center, priority 2016, dated 2021)
